Test results reported in patent publication US7067262B2, “Cell line for the expression of an α2δ2 calcium channel subunit and methods of use” (Warner Lambert Company LLC, priority 2000, dated 2006).
Where two headings read alike, the source gives them in different places.

Columns and labels:
[1] = target: T1, porcine α2δ1 (pα2δ1) calcium channel subunit (Sus scrofa, UniProt A0A287BIN3); assay: [3H]gabapentin radioligand binding to membranes from HEK293 stable cell line GKS02; conditions: for affinity in competition with [3H]gabapentin binding, in words: pα2δ1
T1 construct: expressed in transfected cells
T1 sequence (A0A287BIN3 25-1109): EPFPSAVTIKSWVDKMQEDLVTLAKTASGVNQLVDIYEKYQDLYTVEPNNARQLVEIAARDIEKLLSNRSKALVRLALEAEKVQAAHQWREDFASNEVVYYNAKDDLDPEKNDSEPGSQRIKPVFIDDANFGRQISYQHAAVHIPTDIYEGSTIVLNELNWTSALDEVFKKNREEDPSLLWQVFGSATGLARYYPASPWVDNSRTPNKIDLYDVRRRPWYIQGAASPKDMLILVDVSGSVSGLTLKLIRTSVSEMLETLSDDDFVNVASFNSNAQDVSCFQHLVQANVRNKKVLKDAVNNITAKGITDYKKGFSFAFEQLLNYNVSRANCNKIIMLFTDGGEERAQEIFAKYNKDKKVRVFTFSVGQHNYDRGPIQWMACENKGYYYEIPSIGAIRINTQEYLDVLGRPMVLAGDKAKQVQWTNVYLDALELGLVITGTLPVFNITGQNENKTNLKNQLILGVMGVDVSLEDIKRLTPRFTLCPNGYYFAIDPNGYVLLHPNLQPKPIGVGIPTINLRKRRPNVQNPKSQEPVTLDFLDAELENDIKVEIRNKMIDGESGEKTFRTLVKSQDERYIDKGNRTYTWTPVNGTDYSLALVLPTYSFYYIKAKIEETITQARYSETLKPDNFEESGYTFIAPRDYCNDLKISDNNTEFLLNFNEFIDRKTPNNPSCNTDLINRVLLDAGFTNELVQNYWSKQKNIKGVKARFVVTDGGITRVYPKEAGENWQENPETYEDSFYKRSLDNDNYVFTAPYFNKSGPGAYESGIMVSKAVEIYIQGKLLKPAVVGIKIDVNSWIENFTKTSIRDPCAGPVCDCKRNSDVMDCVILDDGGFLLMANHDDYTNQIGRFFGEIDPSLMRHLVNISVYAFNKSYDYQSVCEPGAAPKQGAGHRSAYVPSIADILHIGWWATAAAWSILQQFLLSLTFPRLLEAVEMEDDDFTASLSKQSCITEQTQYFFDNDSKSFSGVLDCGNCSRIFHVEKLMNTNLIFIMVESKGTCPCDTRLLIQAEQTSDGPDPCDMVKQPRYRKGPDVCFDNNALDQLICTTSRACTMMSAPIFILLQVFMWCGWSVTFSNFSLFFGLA
Procedure: Cell culture and transfection. […] The media were supplemented with 50 units/mL penicillin, 50 μg/mL streptomycin, and 10% heat-inactivated fetal bovine serum (FBS), in a humidified incubator with 95% air and 5% CO2 at 37° C. For transient transfection into COS-7 cells, 20 μg of plasmid DNA (vector or the same vector with α2δ insert) was incubated with 30 μL of lipofectamine. The mixture was overlaid onto the cells in 1.5 mL serum-free medium and incubated for 5 hours. Then FBS was added to the dishes to bring the final concentration to 10%. The medium was changed next morning. Forty-eight hours after the transfection, the cells were harvested for membrane preparation. For stable transfection of porcine α2δ1 and human α2δ2 into HEK 293 cells, the same procedure was applied as that for a transient transfection except for that 800 μg/mL G418 (gentacin) was added to the cells 48 hours after the transfection. […] In addition, hosts for expression of α2δ2 protein binding assays can also include eukaryotic expression systems such as yeast, insect cells, and mammalian cells (CHO, COS-7, HEK293, etc.).
(§1) Membrane preparation. Membranes were prepared from tissues or cultured cells. The cells were washed twice with cold PBS and then scraped off with cold buffer containing Tris (5 mM, pH 7.4), EDTA (5 mM), PMSF (0.1 mM), leupeptin (0.02 mM), and pepstatin (0.02 mM). The cells were incubated on ice for 30 minutes, followed by sonication for 30 to 40 seconds. For membrane preparations from tissues, the tissues were sliced into small pieces and subjected to sonication at interval of 10 seconds 4 times. The resulting homogenates from tissues or cultured cells were centrifuged for 10 minutes at 750 to 1000×g, and then the supernatants were centrifuged at 50,000×g for 30 minutes. The resulting pellets were resuspended in the same buffer as described above.
Binding assays. […] The membranes (100 μg of proteins for transiently transfected cells, 20 μg for GKS02 cell membranes, and 10 μg for GKS07 cell membranes) were incubated in 10 mM HEPES (N-[2-hydroxyethyl]piperazine-N′-[2-ethanesulfonic acid]) (pH 7.4) for 40 to 50 minutes at room temperature, and then filtered onto pre-wetted GF/C membranes and quickly washed five times with 3 mL of ice cold 50 mM Tris buffer (pH 7.4). The filters were dried and counted in a liquid scintillation counter. […] The specific binding was obtained by subtracting nonspecific binding from the total binding.

[2] = target: T2, human α2δ2 (hα2δ2) calcium channel subunit (Homo sapiens, UniProt Q9NY47); assay: [3H]gabapentin radioligand binding to membranes from HEK293 stable cell line GKS07; conditions: for affinity in competition with [3H]gabapentin binding, in words: hα2δ2
T2 construct: covered the whole open reading frame of hα2δ2 cDNA; expressed in transfected cells
T2 sequence (Q9NY47 19-1145 isoform Q9NY47-3 limits assumed): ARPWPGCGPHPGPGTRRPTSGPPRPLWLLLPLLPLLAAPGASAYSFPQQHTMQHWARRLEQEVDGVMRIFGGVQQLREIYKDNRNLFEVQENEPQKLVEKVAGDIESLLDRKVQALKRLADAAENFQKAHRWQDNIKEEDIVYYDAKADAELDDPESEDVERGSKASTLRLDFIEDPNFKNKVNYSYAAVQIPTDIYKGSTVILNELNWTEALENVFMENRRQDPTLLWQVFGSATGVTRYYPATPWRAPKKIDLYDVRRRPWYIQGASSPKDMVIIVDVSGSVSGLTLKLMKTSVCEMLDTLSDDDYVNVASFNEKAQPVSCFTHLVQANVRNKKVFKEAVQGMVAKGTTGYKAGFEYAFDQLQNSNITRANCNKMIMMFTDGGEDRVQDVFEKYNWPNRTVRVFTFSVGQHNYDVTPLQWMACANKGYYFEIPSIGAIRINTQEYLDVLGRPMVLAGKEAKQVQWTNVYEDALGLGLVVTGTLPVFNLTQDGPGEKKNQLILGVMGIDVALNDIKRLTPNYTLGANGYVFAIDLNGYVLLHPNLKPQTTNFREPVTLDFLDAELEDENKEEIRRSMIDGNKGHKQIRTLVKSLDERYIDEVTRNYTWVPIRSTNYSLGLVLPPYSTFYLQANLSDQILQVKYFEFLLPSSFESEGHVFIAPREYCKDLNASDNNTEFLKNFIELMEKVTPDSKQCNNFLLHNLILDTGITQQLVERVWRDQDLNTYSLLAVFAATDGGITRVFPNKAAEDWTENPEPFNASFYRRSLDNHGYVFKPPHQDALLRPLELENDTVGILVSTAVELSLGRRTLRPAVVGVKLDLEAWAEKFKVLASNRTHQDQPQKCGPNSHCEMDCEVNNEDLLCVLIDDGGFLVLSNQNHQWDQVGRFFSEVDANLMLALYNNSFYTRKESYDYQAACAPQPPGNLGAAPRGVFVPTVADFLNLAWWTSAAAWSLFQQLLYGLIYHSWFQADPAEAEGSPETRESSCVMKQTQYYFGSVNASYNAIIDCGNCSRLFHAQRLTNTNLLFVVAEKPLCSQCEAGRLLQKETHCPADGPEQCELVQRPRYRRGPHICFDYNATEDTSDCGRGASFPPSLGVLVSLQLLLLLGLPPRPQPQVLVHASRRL
T2 sequence (Q9NY47 1002-1150 partner limits assumed): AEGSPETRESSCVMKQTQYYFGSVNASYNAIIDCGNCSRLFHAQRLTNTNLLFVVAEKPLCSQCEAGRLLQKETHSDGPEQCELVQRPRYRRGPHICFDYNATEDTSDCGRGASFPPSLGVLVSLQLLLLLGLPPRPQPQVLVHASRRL
Procedure: Cell culture and transfection. COS-7 and HEK293 cells were cultured in DMEM and RPMI 1640 media, respectively. The media were supplemented with 50 units/mL penicillin, 50 μg/mL streptomycin, and 10% heat-inactivated fetal bovine serum (FBS), in a humidified incubator with 95% air and 5% CO2 at 37° C. For transient transfection into COS-7 cells, 20 μg of plasmid DNA (vector or the same vector with α2δ insert) was incubated with 30 μL of lipofectamine. The mixture was overlaid onto the cells in 1.5 mL serum-free medium and incubated for 5 hours. Then FBS was added to the dishes to bring the final concentration to 10%. The medium was changed next morning. Forty-eight hours after the transfection, the cells were harvested for membrane preparation. For stable transfection of porcine α2δ1 and human α2δ2 into HEK 293 cells, the same procedure was applied as that for a transient transfection except for that 800 μg/mL G418 (gentacin) was added to the cells 48 hours after the transfection. […] The cell line has ATCC No. PTA-1823. In addition, hosts for expression of α2δ2 protein binding assays can also include eukaryotic expression systems such as yeast, insect cells, and mammalian cells (CHO, COS-7, HEK293, etc.).
as §1
Binding assays. […] The membranes (100 μg of proteins for transiently transfected cells, 20 μg for GKS02 cell membranes, and 10 μg for GKS07 cell membranes) were incubated in 10 mM HEPES (N-[2-hydroxyethyl]piperazine-N′-[2-ethanesulfonic acid]) (pH 7.4) for 40 to 50 minutes at room temperature, and then filtered onto pre-wetted GF/C membranes and quickly washed five times with 3 mL of ice cold 50 mM Tris buffer (pH 7.4). The filters were dried and counted in a liquid scintillation counter. For determining nonspecific binding, the binding assays were performed in the presence of 10 μM pregabalin (Gee N. S., Brown J. P., Dissanayake V. U., Offord J.; Thurlow R., Woodruff G. N., J. Biol. Chem., 1996;271:5768–5776). The specific binding was obtained by subtracting nonspecific binding from the total binding. Clone #7 was identified as the highest α2δ2 subunit expressing clone. Binding assays can also be performed using recombinant and/or purified α2δ2 protein from human and other mammalian species, for screening α2δ2 subtype-selective inhibitors.

Row | SMILES | affinity in competition with [3H]gabapentin binding, in words [1] | IC50 ([1]; read-out: IC50 Values for Inhibition of [3H]Gabapentin Binding, GKS02 (pα2δ1), membranes from HEK293 cell line GKS02, 20 nM [3H]gabapentin) [µM] | affinity in competition with [3H]gabapentin binding, in words [2] | IC50 ([2]; read-out: IC50 Values for Inhibition of [3H]Gabapentin Binding, GKS07 (hα2δ2), membranes from HEK293 cell line GKS07, 20 nM [3H]gabapentin) [µM] | IC50 [1] [µM] | IC50 [2] [µM]
1 | NC1(C(=O)O)CC2CCC1C2 (stereo not shown) [BCH] | weak | 1.03 | weak | 0.775 | – | –
2 | CC(C)C[C@@H](N)C(=O)O [D-leucine] | – | – | – | – | 199 | 152
3 | NCC1(CC(=O)O)CCCCC1 [Gabapentin, 1-(aminomethyl)cyclohexane acetic acid] | – | – | – | – | – | 0.282
4 | CC(C)C[C@H](N)C(=O)O [L-leucine] | markedly more potent than its D-enantiomer | – | markedly more potent than its D-enantiomer | – | 0.118 | 0.205
5 | N[C@@H](Cc1ccccc1)C(=O)O [L-phenylalanine] | – | – | weak | – | 0.825 | 2.96
6 | CC(C)C[C@H](CN)CC(=O)O [Pregabalin, (S+)-3-isobutyl GABA] | – | – | – | – | 0.149 | 0.096
